Each structure is given as a SMILES string. Like-named read-outs stand apart in the source and are kept apart here.

The results in this text go back to patent US20250249001A1, “METHODS OF TREATING SUBSTANCE USE DISORDER WITH 4-(3-CYANOPHENYL)-6-PYRIDINYLPYRIMIDINE MGLU5 NEGATIVE ALLOSTERIC MODULATORS” (Tempero Bio, Inc., priority 2022, published 2025).

The subject of assay [1] is cocaine-induced CPP in male SD rats. Format: in vivo, Sprague Dawley rats. The note with it: for time difference (drug-paired vs saline-paired) vs Cocaine-Saline group / time spent in the drug-paired compartment vs Cocaine-Saline group: day 10. On the procedure: Animals: Male Sprague Dawley rats (Envigo, IN, 275-299 g) were group housed upon arrival (2 per cage). All rats were examined and handled to assure adequate health and suitability. During the study, a 12/12 light/dark cycle was maintained (lights switched on at 7:00 am). The room temperature was maintained between […] and 23° C. with a relative humidity maintained around 50%. Chow (LabDiet #5001) and water were provided ad libitum for the duration of the study. The test was performed during the animal's light cycle phase.
Cocaine (10 mg/kg) was dissolved in saline and injected IP at a dose volume of 1 ml/kg. Cocaine was administered on training days 3, 5, 7 and 9 immediately prior to training.
3-((2-Methyl-4-thiazolyl)ethynyl)pyridine (MTEP, 3 mg/kg), was dissolved in saline and injected IP on day 10 (bias test) at a dose volume of 1 ml/kg 30 minutes prior to testing.
Compound 1 (1, 3 and 10 mg/kg) was formulated in 10% Solutol HS15 and 90% (10% aqueous 2-hydroxypropyl-β-cyclodextrin) and injected IP on day 10 (bias test) at a dose volume of 2 ml/kg. Compound 1 was administered 30 minutes prior to testing.
The chamber used in this study contained two compartments [(60 cm (L)×40 cm (W)×24 cm (H)]. The compartment used for each animal and drug pairing was assigned and counterbalanced in advance and adjusted as necessary in the rebalancing procedure after day 1 (see details below). Within the chamber, visual and physical features were used to create the two distinct compartments. For example, one compartment may have a flat plastic floor with white stripes and the other may have a textured floor and black stripes. The chambers were cleaned with 70% alcohol in between runs.
Testing sessions were recorded on days 1 and 10 to determine time spent (seconds) in each chamber.
Day 1 Pre-conditioning/Habituation: Animals are allowed to explore the entire testing chamber freely for 20 min. Animals that display a strong preference for one compartment (>75% time spent in one compartment) are excluded.
Rebalancing Procedure: Animals are rebalanced following day 1 scoring if the difference between groups for time spent in one compartment is greater than 15%.
Days 2-9 Conditioning: All animals are treated with saline on days 2, 4, 6, and 8 and with cocaine or saline on days 3, 5, 7, and 9 depending on their assigned group. Animals are confined to their assigned compartment (saline- or cocaine-paired compartment) for 20 minutes following dosing.
Day 10 Post-conditioning bias test: Animals are dosed once with either saline, MTEP or Compound 1 (1, 3 and 10 mg/kg) according to their assigned. Following dosing, animals are allowed to explore the testing chamber freely for 20 minutes with the compartment dividing door open. Their activity exploring the chamber is recorded for analysis.
Statistical Analysis: Statistical analysis was conducted using GraphPad Prism 9. Scorers blinded to the treatment groups scored the amount of time each animal spent exploring each chamber on days 1 and 10. For bias test data, a one-way analysis of variance (ANOVA) followed by Dunnett's post hoc test was used. Significance was set at p<0.05 and values exceeding two standard deviations of the mean were considered statistical outliers and were excluded from the analysis. Additionally, if an animal spent >85% or <15% of the time in one compartment even without any obvious signs of sedation or locomotor dysfunction, they were excluded from the analysis.

Assay [2] concerns cocaine reinstatement in rats. The assay can be described thus: Yohimbine-induced reinstatement of cocaine self-administration (Stage II). Format: in vivo, Sprague-Dawley rats. The note with it: 3 mg/kg co-administered with yohimbine 2 mg/kg; Ps<0.001.
For assay [3], the system named is oxycodone reinstatement in rats. The assay can be described thus: Yohimbine-induced reinstatement of oxycodone self-administration. Format: in vivo, Sprague-Dawley rats. The settings on record: 3 mg/kg thirty minutes before yohimbine 2 mg/kg; Ps<0.001. The protocol: Evaluation of Compound 1 on Oxycodone Reinstatement. After completion of testing rats were re-trained with oxycodone for one week to ensure stable baseline. Rats then underwent a 6-day extinction where only saline infusion occurred when active lever was pressed. Meanwhile, the rats were divided into 3 groups: All rats received one injection of alpha-2 adrenergic antagonist yohimbine (2 mg/kg) with 0 min pretreatment (rats were placed into the training box immediately). Thirty minutes before yohimbine treatment, one group of rats received saline, another group received MTEP 3 mg/kg injection, and the 3rd group received Compound 1 (3 mg/kg). Yohimbine-induced reinstatement was re-tested two more times in the same rats 3 days and 6 days after the first test, under continuous extinction procedure.
Statistical Analysis. Prism 9.40 software package Version 9 was used for statistical analysis and graphing. The number of active lever responses were recorded during each session and compared between treatment groups. A one-way mixed-effects model (REML) of ANOVA followed by Dunnett's post hoc tests were used to analyze efficacy of Compound 1 and MTEP on oxycodone self-administration in stages I (The repeated measure ANOVA was not totally applicable due to a few outlier data points, which are removed), and one-way mixed-effects model (REML) of ANOVA followed by Tukey's post hoc tests were used in Stage II. An effect was considered significant if P<0.05. Data were represented as the mean and standard error to the mean (s.e.m). Statistical outliers which exceeded mean +/− (2× standard deviation) of the group were removed from the analysis.

The subject of assay [4] is cocaine reinstatement in rats. Description: Yohimbine-induced reinstatement of cocaine self-administration (Stage II). Format: in vivo, Sprague-Dawley rats. The note with it: for cocaine reinstatement, Mean Diff., Last Day of Cocaine Retraining vs treatment - Yohimbine / cocaine reinstatement, Mean Diff., Last Day of Extinction vs. treatment - Yohimbine / cocaine reinstatement, Mean Diff., Saline - Yohimbine 2 mg/kg vs. treatment - Yohimbine: 3 mg/kg, thirty min before yohimbine 2 mg/kg. The protocol: After completion of Stage I, the rats were re-trained with cocaine for one week to ensure stable baseline. And then the rats underwent a 6-day extinction training procedure in which only saline infusion occurred when active lever was pressed. Meanwhile, the rats were divided into 3 roughly even groups for pharmacological stressor-induced reinstatement—All rats received one injection of alpha-2 adrenergic antagonist yohimbine (2 mg/kg) and then placed into the training box immediately). Thirty min before yohimbine treatment, one group of rats received saline, another group received MTEP 3 mg/kg injection, and the 3rd group received Compound 1 at 3 mg/kg.
Yohimbine-induced reinstatement was re-tested two more times in the same rats 3 days and 6 days after the first test, under continuous extinction procedure (There were 2 more days of extinction training between the 1st and 2nd reinstatement test, and between the 2nd and 3rd reinstatement test). Using the 3×3 within subject design, each given animal goes through all three treatments (saline, MTEP and Compound 1) across the three rounds of test.
A one-way mixed-effects model (REML) of ANOVA followed by Dunnett's post hoc tests were used to analyze efficacy of Compound 1 and MTEP on cocaine self-administration in stages I (The repeated measure ANOVA was not totally applicable due to a few outlier data points, which are removed), and one-way mixed-effects model (REML) of ANOVA followed by Tukey's post hoc tests were used in Stage II. An effect was considered significant if P<0.05. Data were represented as the mean and standard error to the mean (s.e.m).
Statistical outliers which exceeded mean +/− (2× standard deviation) of the group were removed from the analysis. Also, for reinstatement, the extinction time was shortened (from 9 days plus extension as option to 6 days). In the present study, 3 rounds of reinstatement tests were performed, and we wished to maintain the reinstatement power, thus we cut extinction duration. Accordingly, we loosened the extinction criterion from 6 or less infusions to 9 or less infusions during the last extinction session. With this criterion, 17 out of 21 rats were eligible in drug test in Stage II.

[5] abbreviates: 1 mg/kg IP 30 minutes prior to day 10 bias test.
Where [6] appears, read: MTEP 3 mg/kg IP 30 minutes prior to day 10 bias test.

On to `N#Cc1cc(Cl)cc(-c2cc(-c3ccc(F)cn3)ncn2)c1` [Compound 1, 3-chloro-5-[6-(5-fluoropyridin-2-yl)pyrimidin-4-yl]benzonitrile], for which, in assay [1] (setting [5]), the “Percent time in compound-paired compartment, Mean Diff., Cocaine - Saline vs. Cocaine - Compound 1 (1 mg/kg)” value is listed as 19.16% and the “Preference Scores, Mean Diff., Cocaine - Saline vs. Cocaine - Compound 1 (1 mg/kg)” value came to 459.9 s. In addition, in assay [1] (1 mg/kg IP, p<0.01), the “time difference (drug-paired vs saline-paired) vs Cocaine-Saline group” value is “significantly lower time difference” and the “time spent in the drug-paired compartment vs Cocaine-Saline group” value is given as “significantly less time in the drug-paired compartment”. In assay [2], the yohimbine-induced cocaine reinstatement entry is given as “almost entirely prevented cocaine reinstatement”. Further, the “yohimbine-induced oxycodone reinstatement vs Vehicle-Yohimbine group” value in assay [3] is listed as “attenuated yohimbine-induced oxycodone reinstatement”. In assay [4], the “cocaine reinstatement, Mean Diff., Last Day of Cocaine Retraining vs treatment - Yohimbine” value was 26.57; the “cocaine reinstatement, Mean Diff., Last Day of Extinction vs. treatment - Yohimbine” value was found to be 5.749; the “cocaine reinstatement, Mean Diff., Saline - Yohimbine 2 mg/kg vs. treatment - Yohimbine” value is on record as 20.28. For the same molecule, the “cocaine reinstatement, Mean Diff., MTEP 3 mg/kg - Yohimbine vs. Compound 1 (3 mg/kg) - Yohimbine” value in assay [4] (both 3 mg/kg before yohimbine 2 mg/kg) was −0.1333.
Consider `Cc1nc(C#Cc2cccnc2)cs1` [MTEP, 3-((2-Methyl-4-thiazolyl)ethynyl)pyridine], for which, in assay [1] (3 mg/kg IP, p<0.05), the “time difference (drug-paired vs saline-paired) vs Cocaine-Saline group” value is “significantly lower time difference” and the “time spent in the drug-paired compartment vs Cocaine-Saline group” value is on record as “significantly less time in the drug-paired compartment”. Also, in assay [1] (setting [6]), the “Percent time in compound-paired compartment, Mean Diff., Cocaine - Saline vs. Cocaine - MTEP” value worked out at 18.73% and the “Preference Scores, Mean Diff., Cocaine - Saline vs. Cocaine - MTEP” value is 449.6 s. Moreover, the yohimbine-induced cocaine reinstatement entry in assay [2] is listed as “almost entirely prevented cocaine reinstatement”. The “yohimbine-induced oxycodone reinstatement vs Vehicle-Yohimbine group” value in assay [3] is reported as “attenuated yohimbine-induced oxycodone reinstatement”. In assay [4], the “cocaine reinstatement, Mean Diff., Last Day of Cocaine Retraining vs treatment - Yohimbine” value is 26.71; the “cocaine reinstatement, Mean Diff., Last Day of Extinction vs. treatment - Yohimbine” value is given as 5.882; the “cocaine reinstatement, Mean Diff., Saline - Yohimbine 2 mg/kg vs. treatment - Yohimbine” value is 20.41.
